From patent US20260262643A1, “HERBICIDAL BENZOXAZINES” (FMC CORPORATION, priority 2022, published 2026)

Legend:
[1] = tested on: ducksalad; assay: Test D flooded paddy test; type: in vivo, Heteranthera limosa; details: 250 g ai/ha, applied to paddy water, visual rating after 13 to 14 days, scale 0 to 100 (0 no effect, 100 complete control)
Procedure, shortened: (§1)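 Compounds go straight into paddy water over 2-leaf plants in pots flooded to 3 cm. Greenhouse holding lasts 13 to 14 days. Injury is scored by eye against controls from 0 (none) to 100 (complete control).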

[2] = tested on: corn; assay: Test C postemergence; type: in vivo, Zea mays; details: 10 days
Procedure, shortened: (§2)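 Greenhouse herbicide screen, 10-day duration. Test chemicals in solvent/surfactant blend were sprayed onto soil at sowing (pre) or onto 2–10 cm seedlings at one to two leaves (post); injury scored visually against controls, 0 no effect to 100 complete control.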

[3] = tested on: green foxtail; assay: Test C postemergence; type: in vivo, Setaria viridis; details: 10 days
Procedure, shortened: as §2

[4] = tested on: pigweed, palmer; assay: Test C postemergence; type: in vivo, Amaranthus palmeri; details: 10 days
Procedure, shortened: as §2

[5] = tested on: ryegrass, Italian; assay: Test C preemergence; type: in vivo, Lolium multiflorum; details: for Ryegrass, Italian plant response rating: preemergence; for Plant response rating, Ryegrass, Italian: Preemergence
Procedure, shortened: as §2

[6] = tested on: blackgrass; assay: Test C preemergence; type: in vivo, Alopecurus myosuroides; details: for Blackgrass plant response rating: preemergence; for Plant response rating, Blackgrass: Preemergence
Procedure, shortened: as §2

[7] = tested on: ryegrass, Italian; assay: Test C postemergence; type: in vivo, Lolium multiflorum; details: 10 days
Procedure, shortened: as §2

[8] = tested on: oat, wild; assay: Test C postemergence; type: in vivo, Avena fatua; details: 10 days
Procedure, shortened: as §2

[9] = tested on: rice; assay: Test D flooded paddy test; type: in vivo, Oryza sativa; details: 250 g ai/ha, applied to paddy water, visual rating after 13 to 14 days, scale 0 to 100 (0 no effect, 100 complete control)
Procedure, shortened: as §1

[10] = tested on: wheat; assay: Test C postemergence; type: in vivo, Triticum aestivum; details: 10 days
Procedure, shortened: as §2

[11] = tested on: oat, wild; assay: Test C preemergence; type: in vivo, Avena fatua; details: for Oat, Wild plant response rating: preemergence; for Plant response rating, Oat, Wild: Preemergence
Procedure, shortened: as §2

[12] = tested on: sedge, umbrella; assay: Test D flooded paddy test; type: in vivo, Cyperus difformis; details: 250 g ai/ha, applied to paddy water, visual rating after 13 to 14 days, scale 0 to 100 (0 no effect, 100 complete control)
Procedure, shortened: as §1

[13] = tested on: wheat; assay: Test C preemergence; type: in vivo, Triticum aestivum; details: for Wheat plant response rating: preemergence; for Plant response rating, Wheat: Preemergence
Procedure, shortened: as §2

[14] = tested on: soybean; assay: Test C preemergence; type: in vivo, Glycine max; details: for Soybean plant response rating: preemergence; for Plant response rating, Soybean: Preemergence
Procedure, shortened: as §2

[15] = tested on: horseweed; assay: Test C postemergence; type: in vivo, Erigeron canadensis; details: 10 days
Procedure, shortened: as §2

[16] = tested on: barnyardgrass; assay: Test D flooded paddy test; type: in vivo, Echinochloa crus-galli; details: 250 g ai/ha, applied to paddy water, visual rating after 13 to 14 days, scale 0 to 100 (0 no effect, 100 complete control)
Procedure, shortened: as §1

[17] = tested on: pigweed, palmer; assay: Test C preemergence; type: in vivo, Amaranthus palmeri; details: for Pigweed, Palmer plant response rating: preemergence; for Plant response rating, Pigweed, Palmer: Preemergence
Procedure, shortened: as §2

[18] = tested on: barnyardgrass; assay: Test C preemergence; type: in vivo, Echinochloa crusgalli; details: for Barnyardgrass plant response rating: preemergence; for Plant response rating, Barnyardgrass: Preemergence
Procedure, shortened: as §2

[19] = tested on: green foxtail; assay: Test C preemergence; type: in vivo, Setaria viridis; details: for Foxtail, Green plant response rating: preemergence; for Plant response rating, Foxtail, Green: Preemergence
Procedure, shortened: as §2

[20] = tested on: kochia; assay: Test C preemergence; type: in vivo, Bassia scoparia; details: for Kochia plant response rating: preemergence; for Plant response rating, Kochia: Preemergence
Procedure, shortened: as §2

[21] = tested on: soybean; assay: Test C postemergence; type: in vivo, Glycine max; details: 10 days
Procedure, shortened: as §2

[22] = tested on: blackgrass; assay: Test C postemergence; type: in vivo, Alopecurus myosuroides; details: 10 days
Procedure, shortened: as §2

[23] = tested on: corn; assay: Test C preemergence; type: in vivo, Zea mays; details: for Corn plant response rating: preemergence; for Plant response rating, Corn: Preemergence
Procedure, shortened: as §2

[24] = tested on: kochia; assay: Test C postemergence; type: in vivo, Bassia scoparia; details: 10 days
Procedure, shortened: as §2

[25] = tested on: ragweed; assay: Test C postemergence; type: in vivo, Ambrosia artemisiifolia; details: 10 days
Procedure, shortened: as §2

[26] = tested on: barnyardgrass; assay: Test C postemergence; type: in vivo, Echinochloa crusgalli; details: 10 days
Procedure, shortened: as §2

[27] = tested on: ragweed; assay: Test C preemergence; type: in vivo, Ambrosia artemisiifolia; details: for Ragweed plant response rating: preemergence; for Plant response rating, Ragweed: Preemergence
Procedure, shortened: as §2

[28] = 500 g ai/ha, postemergence, 0 to 100 scale (0 no effect, 100 complete control)
[29] = Postemergence, 125 g ai/ha, 0 to 100 scale (0 no effect, 100 complete control)
[30] = 500 g ai/ha, 0 to 100 scale (0 no effect, 100 complete control)
[31] = 125 g ai/ha, 0 to 100 scale, 0 no effect, 100 complete control
[32] = 125 g ai/ha, postemergence, 0 to 100 scale, 0 no effect, 100 complete control
[33] = Postemergence, 500 g ai/ha, visual 0 to 100 scale (0 no effect, 100 complete control)
[34] = 500 g ai/ha, visual rating after 10 days, 0 to 100 scale (0 no effect, 100 complete control)
[35] = Test C, 125 g ai/ha, 0 to 100 scale (0 no effect, 100 complete control)

Question: Which results are given for `Cc1ccc(-n2cnc(C3(C#N)CC3)n2)cc1C(=O)N1C[C@H](C)Oc2c(Cl)cccc21` [Compound 398]?
Answer: Plant response rating, Ducksalad (Flood) [1]: 15; Plant response rating, Corn [2, 28]: 80; Plant response rating, Corn [2, 29]: 10; Plant response rating, Foxtail, Green [3, 28]: 90; Plant response rating, Foxtail, Green [3, 29]: 70; Plant response rating, Pigweed, Palmer [4, 28]: 100; Plant response rating, Pigweed, Palmer [4, 29]: 90; Ryegrass, Italian plant response rating [5, 30]: 80; Plant response rating, Ryegrass, Italian [5, 31]: 40; Blackgrass plant response rating [6, 30]: 40; Plant response rating, Blackgrass [6, 31]: 30; Plant response rating, Ryegrass, Italian [7, 29]: 30; Plant response rating, Oat, Wild [8, 28]: 60; Plant response rating, Oat, Wild [8, 29]: 0; Plant response rating, Rice (Flood) [9]: 15; Plant response rating, Wheat [10, 29]: 20; Oat, Wild plant response rating [11, 30]: 40; Plant response rating, Oat, Wild [11, 31]: 0; Plant response rating, Sedge, Umbrella (Flood) [12]: 45; Wheat plant response rating [13, 30]: 20; Plant response rating, Wheat [13, 31]: 0; Soybean plant response rating [14, 30]: 60; Plant response rating, Soybean [14, 31]: 40; Plant response rating, Horseweed [15, 28]: 60; Plant response rating, Horseweed [15, 29]: 60; Plant response rating, Barnyardgrass (Flood) [16]: 25; Pigweed, Palmer plant response rating [17, 30]: 100; Plant response rating, Pigweed, Palmer [17, 31]: 100; Barnyardgrass plant response rating [18, 30]: 90; Plant response rating, Barnyardgrass [18, 31]: 60; Foxtail, Green plant response rating [19, 30]: 100; Plant response rating, Foxtail, Green [19, 31]: 100; Kochia plant response rating [20, 30]: 100; Plant response rating, Kochia [20, 31]: 90; Plant response rating, Soybean [21, 29]: 20; Plant response rating, Blackgrass [22, 28]: 90; Plant response rating, Blackgrass [22, 29]: 70; Corn plant response rating [23, 30]: 0; Plant response rating, Corn [23, 31]: 0; Plant response rating, Kochia [24, 28]: 90; Plant response rating, Kochia [24, 29]: 90; Plant response rating, Ragweed [25, 29]: 70; Plant response rating, Barnyardgrass [26, 28]: 50; Plant response rating, Barnyardgrass [26, 29]: 20; Ragweed plant response rating [27, 30]: 30; Plant response rating, Ragweed [27, 31]: 0

Question: How did the “Plant response rating, Ducksalad (Flood)” value [1] turn out when `CC(C)c1ncn(-c2cc3c(c(C(=O)N4C[C@H](C)Oc5c(Cl)cccc54)c2)OCCO3)n1` [Compound 217, [(2S)-8-chloro-2-methyl-2,3-dihydro-1,4-benzoxazin-4-yl]-[7-(3-isopropyl-1,2,4-triazol-1-yl)-2,3-dihydro-1,4-benzodioxin-5-yl]methanone] was run?
Answer: 85

Question: And the Corn plant response rating (crop injury, 0 = no effect, 100 = complete kill) at 125 g/ha ([2]; Zea mays, post-emergence, 240 h, 125 g ai/ha, postemergence, 0 to 100 scale (0 no effect, 100 complete control))?
Answer: 70%

Question: What about the Corn plant response rating (crop injury, 0 = no effect, 100 = complete kill) at 500 g/ha ([2]; Zea mays, post-emergence, 240 h, Postemergence, 500 g ai/ha, visual 0 to 100 scale (0 no effect, 100 complete control)) of the same compound?
Answer: 70%

Question: What about the “Plant response rating, Foxtail, Green” value [3, 32] of the same compound?
Answer: 90

Question: What about the “Plant response rating, Foxtail, Green” value [3, 33] of the same compound?
Answer: 90

Question: And the “Plant response rating, Pigweed, Palmer” value [4, 32]?
Answer: 100

Question: And the “Plant response rating, Pigweed, Palmer” value [4, 33]?
Answer: 100

Question: And the “Plant response rating, Ryegrass, Italian” value [5, 34]?
Answer: 100

Question: And the “Ryegrass, Italian plant response rating” value [5, 35]?
Answer: 90

Question: And the “Plant response rating, Blackgrass” value [6, 34]?
Answer: 90

Question: And the “Blackgrass plant response rating” value [6, 35]?
Answer: 60

Question: What about the “Plant response rating, Ryegrass, Italian” value [7, 32] of the same compound?
Answer: 70

Question: And the “Plant response rating, Ryegrass, Italian” value [7, 33]?
Answer: 90

Question: What about the “Plant response rating, Oat, Wild” value [8, 32] of the same compound?
Answer: 20

Question: And the “Plant response rating, Oat, Wild” value [8, 33]?
Answer: 40

Question: What about the “Plant response rating, Rice (Flood)” value [9] of the same compound?
Answer: 20

Question: What about the “Plant response rating, Wheat” value [10, 32] of the same compound?
Answer: 50

Question: And the “Plant response rating, Wheat” value [10, 33]?
Answer: 50

Question: And the “Plant response rating, Oat, Wild” value [11, 34]?
Answer: 90

Question: What about the “Oat, Wild plant response rating” value [11, 35] of the same compound?
Answer: 90

Question: What about the “Plant response rating, Sedge, Umbrella (Flood)” value [12] of the same compound?
Answer: 98

Question: And the “Plant response rating, Wheat” value [13, 34]?
Answer: 90

Question: And the “Wheat plant response rating” value [13, 35]?
Answer: 30

Question: And the “Plant response rating, Soybean” value [14, 34]?
Answer: 100

Question: What about the “Soybean plant response rating” value [14, 35] of the same compound?
Answer: 70

Question: And the “Plant response rating, Horseweed” value [15, 32]?
Answer: 80

Question: What about the “Plant response rating, Horseweed” value [15, 33] of the same compound?
Answer: 100

Question: What about the “Plant response rating, Barnyardgrass (Flood)” value [16] of the same compound?
Answer: 50

Question: And the “Plant response rating, Pigweed, Palmer” value [17, 34]?
Answer: 100

Question: What about the “Pigweed, Palmer plant response rating” value [17, 35] of the same compound?
Answer: 100

Question: And the “Plant response rating, Barnyardgrass” value [18, 34]?
Answer: 100

Question: And the “Barnyardgrass plant response rating” value [18, 35]?
Answer: 90

Question: What about the “Plant response rating, Foxtail, Green” value [19, 34] of the same compound?
Answer: 100

Question: And the “Foxtail, Green plant response rating” value [19, 35]?
Answer: 100

Question: And the “Plant response rating, Kochia” value [20, 34]?
Answer: 100

Question: What about the “Kochia plant response rating” value [20, 35] of the same compound?
Answer: 80

Question: And the “Plant response rating, Soybean” value [21, 32]?
Answer: 100

Question: What about the “Plant response rating, Soybean” value [21, 33] of the same compound?
Answer: 100

Question: What about the pest or weed control at 125 g/ha ([22]; Alopecurus myosuroides, post-emergence, 240 h, 125 g ai/ha, postemergence, 0 to 100 scale (0 no effect, 100 complete control), read-out: Plant response rating, Blackgrass) of the same compound?
Answer: 90%

Question: And the pest or weed control at 500 g/ha ([22]; Alopecurus myosuroides, post-emergence, 240 h, Postemergence, 500 g ai/ha, visual 0 to 100 scale (0 no effect, 100 complete control), read-out: Plant response rating, Blackgrass)?
Answer: 100%

Question: And the “Plant response rating, Corn” value [23, 34]?
Answer: 40

Question: What about the “Corn plant response rating” value [23, 35] of the same compound?
Answer: 30

Question: And the “Plant response rating, Kochia” value [24, 32]?
Answer: 80

Question: What about the “Plant response rating, Kochia” value [24, 33] of the same compound?
Answer: 90

Question: And the “Plant response rating, Ragweed” value [25, 32]?
Answer: 90

Question: And the “Plant response rating, Ragweed” value [25, 33]?
Answer: 100

Question: What about the “Plant response rating, Barnyardgrass” value [26, 32] of the same compound?
Answer: 40

Question: And the “Plant response rating, Barnyardgrass” value [26, 33]?
Answer: 80

Question: What about the “Plant response rating, Ragweed” value [27, 34] of the same compound?
Answer: 100

Question: What about the “Ragweed plant response rating” value [27, 35] of the same compound?
Answer: 70
